# According to US20060040937A1, “N-aroyl cyclic amines as orexin receptor antagonists” (Glaxo Group Limited, priority 2002, published 2006):
# Ends that are not written are not given here.
# How the values were obtained:
# rat = test: Rat sleep/EEG studies; type: in vivo; conditions: central administration at the onset of the normal sleep period
# From the text: Therefore antagonists of its receptor may be useful in the treatment of sleep disorders including insomnia.
# freely-feeding rats = conditions: central administration, 4 hour time period; cited from earlier work
substance,measurement,setting,value
"orexin-A: peptide ligand for the orexin-1 receptor, an agonist of the orexin receptors; amino acid sequence printed in b97-b99 (QPLPDCCRQKTCSCRLYELLHGAGNHAAGILTL; ends and bridges not checked; cysteine pairing not given here; UniProt O43612 34-66, looked up)",effect on arousal (sleep/EEG),rat,dose-related increase in arousal
same,increase in food intake over control rats receiving vehicle,freely-feeding rats,approximately four-fold
